Consider three compounds from patent publication US20240118287A1, “ANALYSIS PLATE FOR A MASS SPECTROMETRY ANALYSIS AND ASSOCIATED METHOD FOR CHARACTERIZING MICROORGANISMS BY MASS SPECTROMETRY” (priority 2021, published 2024).

≈ marks a conversion by molar mass, not a printed value.

What all share (type): cell-based
For one assay, the system named is Ref 1 K. pneumoniae. The experiment in a line: MIC by microdilution in broth, reference strain Ref 1. Details: key to Phenotype (R = resistant, S = sensitive): RA signifies resistance to amoxicillin; RC signifies resistance to ceftriaxone; RM signifies resistance to meropenem; RO resistance to oxacillin; SA signifies sensitive to amoxicillin; SC signifies sensitive to ceftriaxone; SM signifies sensitive to meropenem; SO sensitive to oxacillin. Conditions: for Phenotype (R = resistant, S = sensitive): KPC-2; for MIC: Klebsiella pneumoniae, KPC-2, microdilution in broth, read-out: Minimum inhibitory concentration (MIC in μg/ml). The procedure:
(§1) The minimum inhibitory concentration (MIC in μg/ml) was determined by microdilution in broth, a technique very widely used by a person skilled in the art.
Background: In broth dilution the organism is exposed to a series of concentrations in liquid medium.

Assay [1] concerns Isolate 3 (Escherichia coli). The experiment in a line: Resistance characterization on functionalized analysis plate, MALDI-TOF (Example 4). Conditions: threshold identification probability ≥90% for at least 3 deposits out of 4, amoxicillin 2, ceftriaxone 24, meropenem 2 μg/ml. The procedure:
(§2) This cassette comprises a gasket so as to be able to dispose the analysis plate on a sponge impregnated to saturation with Muller-Hinton culture medium. The sponge impregnated with a culture medium serves as a support, and it is made of porous material as described in the description.
(§3) A cover was placed on the cassette containing the analysis plate so as to be clipped on the cassette and close the device without touching the top of the drops.
(§4) The analysis cassettes thus prepared were incubated in the stove at 37° C. for 2, 3, 4 or 5 hours.
(§5) At the end of the incubation step, the analysis plates are placed on very absorbent, dry blotting paper, with an absorption capacity of 25 μL·cm^−2, so that the drops present on the analysis plate are aspirated by capillarity through the analysis zones made of porous material.
(§6) 1 μl of HCCA matrix, alpha-cyano 4-hydroxycinnamic acid (VITEK®MS-CHCA, bioMérieux reference 411071) was deposited on the analysis zones, comprising the microorganisms and the antimicrobial agent, and on the calibration zones comprising the calibrant.
(§7) The analysis plate is then dried and analyzed by VITEK®MS as described in example 1.
(§8) The isolates identified in example 1 were diluted to 0.5 McFarland (McF) in Muller-Hinton medium (bioMérieux reference AEB 110699), then diluted again to 1/100° for the Gram-negative bacteria and to 1/10° for the Gram-positive bacteria, always in Muller-Hinton medium.
(§9) Drops of 2 μl of the final dilutions were deposited on the analysis zones of the analysis plates according to the invention as described in example 2. As before, the dilutions of E. coli and of K. pneumoniae were analyzed on the targets with 16 deposits of amoxicillin, 16 deposits of ceftriaxone and 16 deposits of meropenem. The dilutions of Staphylococci were analyzed on the targets with 2 μg/ml of oxacillin.
(§10) The analysis was carried out according to the same procedure as in example 3 with an incubation of 4 h for all the microorganisms. Moreover, the results were interpreted as in example 3, i.e. with a threshold of identification probability greater than or equal to 90% for at least 3 deposits out of 4.

In assay [2] the test system is Isolate 7 (Klebsiella pneumoniae). The assay is described as above. Conditions: isolate 7 (K. pneumoniae); threshold identification probability ≥90% for at least 3 deposits out of 4; amoxicillin 2, ceftriaxone 24, meropenem 2 μg/ml. The procedure: as §2, §3, §4, §5, §6, §7, §8, §9, §10
For assay [3], the system named is Isolate 8 (Klebsiella pneumoniae). The description is as above. As to conditions: isolate 8 (K. pneumoniae); threshold identification probability ≥90% for at least 3 deposits out of 4; amoxicillin 2, ceftriaxone 24, meropenem 2 μg/ml. As to the method:
as §2, §3, §4, §5, §6, §7, §8, §9, §10

In assay [4] the test system is Isolate 5 (Escherichia coli). The description is as above. Conditions: isolate 5 (E. coli); threshold identification probability ≥90% for at least 3 deposits out of 4; amoxicillin 2, ceftriaxone 24, meropenem 2 μg/ml. The procedure: as §2, §3, §4, §5, §6, §7, §8, §9, §10
The test system of assay [5] is Isolate 1 (Escherichia coli). The description is as above. Conditions: threshold identification probability ≥90% for at least 3 deposits out of 4, amoxicillin 2, ceftriaxone 24, meropenem 2 μg/ml. The procedure:
as §2, §3, §4, §5, §6, §7, §8, §9, §10

The test system of a further assay is Ref 5 E. coli. Briefly: MIC by microdilution in broth, reference strain Ref 5. Details: key to Phenotype (R = resistant, S = sensitive): RA signifies resistance to amoxicillin; RC signifies resistance to ceftriaxone; RM signifies resistance to meropenem; RO resistance to oxacillin; SA signifies sensitive to amoxicillin; SC signifies sensitive to ceftriaxone; SM signifies sensitive to meropenem; SO sensitive to oxacillin. Conditions: CTX-M; for MIC: Escherichia coli, microdilution in broth, read-out: Minimum inhibitory concentration (MIC in μg/ml). As to the method: as §1

The next assay relates to Ref 3 E. coli. The experiment in a line: MIC by microdilution in broth, reference strain Ref 3. Details: key to Phenotype (R = resistant, S = sensitive): RA signifies resistance to amoxicillin; RC signifies resistance to ceftriaxone; RM signifies resistance to meropenem; RO resistance to oxacillin; SA signifies sensitive to amoxicillin; SC signifies sensitive to ceftriaxone; SM signifies sensitive to meropenem; SO sensitive to oxacillin. As to conditions: for MIC: Escherichia coli, TEM-2, microdilution in broth, read-out: Minimum inhibitory concentration (MIC in μg/ml); for Phenotype (R = resistant, S = sensitive): TEM-2. The procedure:
as §1

A further assay relates to Ref 4 E. coli. The experiment in a line: MIC by microdilution in broth, reference strain Ref 4. Further details: key to Phenotype (R = resistant, S = sensitive): RA signifies resistance to amoxicillin; RC signifies resistance to ceftriaxone; RM signifies resistance to meropenem; RO resistance to oxacillin; SA signifies sensitive to amoxicillin; SC signifies sensitive to ceftriaxone; SM signifies sensitive to meropenem; SO sensitive to oxacillin. As to conditions: for MIC: Escherichia coli, microdilution in broth, read-out: Minimum inhibitory concentration (MIC in μg/ml). The procedure: as §1

Another assay concerns Ref 2 K. pneumoniae. Briefly: MIC by microdilution in broth, reference strain Ref 2. Details: key to Phenotype (R = resistant, S = sensitive): RA signifies resistance to amoxicillin; RC signifies resistance to ceftriaxone; RM signifies resistance to meropenem; RO resistance to oxacillin; SA signifies sensitive to amoxicillin; SC signifies sensitive to ceftriaxone; SM signifies sensitive to meropenem; SO sensitive to oxacillin. As to conditions: for MIC: Klebsiella pneumoniae, OXA-48, microdilution in broth, read-out: Minimum inhibitory concentration (MIC in μg/ml); for Phenotype (R = resistant, S = sensitive): OXA-48. The procedure:
as §1

As to `CC1(C)S[C@@H]2[C@H](NC(=O)[C@H](N)c3ccc(O)cc3)C(=O)N2[C@H]1C(=O)O` [Amoxicillin, amoxicillin], the “Phenotype (R = resistant, S = sensitive)” value is “RA” with Ref 1 K. pneumoniae; “RA” with Ref 5 E. coli; “RA” in the assay on Ref 3 E. coli; “SA” in the assay with Ref 4 E. coli; “RA” with Ref 2 K. pneumoniae. For the same compound, the MIC in the assay on Ref 1 K. pneumoniae is > 128 µg/mL; in the assay on Ref 5 E. coli, > 128 µg/mL; with Ref 3 E. coli, 32 µg/mL (≈ 87.6 µM); in the assay with Ref 4 E. coli it was 1 µg/mL (≈ 2.74 µM); in the assay with Ref 2 K. pneumoniae it was 64 µg/mL (≈ 175 µM). Moreover, the “Isolate characterized as resistant or sensitive to the antibiotic” value (“Isolate characterized” below) in assay [1], in assay [2], in assay [3], in [4] and in assay [5] was “resistant” in each case.

For the compound `C[C@@H](O)[C@H]1C(=O)N2C(C(=O)O)=C(S[C@@H]3CN[C@H](C(=O)N(C)C)C3)[C@H](C)[C@H]12` [Meropenem, meropenem], the “Phenotype (R = resistant, S = sensitive)” value with Ref 1 K. pneumoniae was “RM”; in the assay on Ref 5 E. coli, “SM”; in the assay on Ref 3 E. coli it was “SM”; in the assay with Ref 4 E. coli it was “SM”; in the assay with Ref 2 K. pneumoniae, “SM”. Further, the MIC in the assay with Ref 1 K. pneumoniae is 64 µg/mL (≈ 167 µM); in the assay with Ref 5 E. coli, 0.5 µg/mL (≈ 1.3 µM); in the assay on Ref 3 E. coli, 0.5 µg/mL (≈ 1.3 µM); in the assay on Ref 4 E. coli, 0.06 µg/mL (≈ 0.156 µM); with Ref 2 K. pneumoniae, 0.25 µg/mL (≈ 0.652 µM). For the same compound, the “Isolate characterized” value in assay [1], in assay [2], in [3], in [4] and in assay [5] was “sensitive” throughout.

For `CO/N=C(\C(=O)N[C@@H]1C(=O)N2C(C(=O)O)=C(CSc3nc(=O)c(=O)[nH]n3C)CS[C@H]12)c1csc(N)n1` [Ceftriaxone, ceftriaxone], the “Phenotype (R = resistant, S = sensitive)” value is “RC” in the assay with Ref 1 K. pneumoniae; “RC” in the assay with Ref 5 E. coli; “RC” in the assay on Ref 3 E. coli; “SC” with Ref 4 E. coli; “RC” with Ref 2 K. pneumoniae. In addition, the MIC with Ref 1 K. pneumoniae came to 64 µg/mL (≈ 115 µM); in the assay with Ref 5 E. coli, 8 µg/mL (≈ 14.4 µM); in the assay with Ref 3 E. coli, 16 µg/mL (≈ 28.9 µM); with Ref 4 E. coli, 0.25 µg/mL (≈ 0.451 µM); in the assay with Ref 2 K. pneumoniae it was 32 µg/mL (≈ 57.7 µM). The “Isolate characterized” value in assay [1] is given as “resistant”; in [2], “sensitive”; in assay [3], “resistant”; in assay [4], “sensitive”; in assay [5], “sensitive”.
